Measurements from article PMC8316502 (Nature Communications, 2021).
Read-outs that look alike come from different tables or passages of the source.

Tests used:
S. stellulata AepX = assay: Microscale thermophoresis ligand binding of recombinant S. stellulata AepX; design: species or system Stappia stellulata; conditions: for Kd: read-out: Kd (μM) AepX Ss
Protocol: Finally, we determined the substrate specificity of recombinant S. stellulata AepX towards 2AEP and other (alkyl)phosphonates using microscale thermophoresis[53],[54].
Recombinant AepX was over-produced and purified to homogeneity using methods described in[53]. Binding affinity was determined by microscale thermophoresis using a Monolith NT.115 instrument (NanoTemper Technologies GmbT, Germany) following the protocols described in[53],[54]. A detailed protocol is outlined in the Supplementary Materials. […]
pET21a::aepXSs was sequence verified by automated DNA sequencing (Eurofins, Germany) and introduced to E. coli BL21(DE3) for over-production of recombinant AepX with a C-terminal […]
E. coli BL21(DE3) harbouring pET21a::aepXSs was grown in LB broth with 100 µg mL-1 ampicillin in a culture volume of 1 L contained within a 2 L baffled flask. […]
The binding affinity of AepX for phosphonate ligands was determined using Microscale Thermophoresis (MST) with a Monolith NT.115 instrument (NanoTemper Technologies, Germany).
AepX (100 nM) was labelled with 2nd Generation RED-tris-NTA dye (Nanotemper Technologies, Germany) in 20 mM HEPES pH 7.5 with 200 mM NaCl and 0.005% (v/v) Tween-20 (MST buffer) according to the manufacturer’s instructions. […] 4 µL of each protein-ligand mixture was loaded into Monolith NT.115 Premium Capillaries (Nanotemper Technologies, Germany) and thermophoresis was measured at 22 °C for 22 s with 60 % LED power and High MST power. Data from at least two independent titrations were combined and analysed using the MO.Affinity Analysis software version 2.3 (Nanotemper Technologies, Germany), using the early thermophoresis data at 1 – 2.5 seconds in the experiment for analysis. […]
Figure S7. Binding affinities for selected phosphonates by the Stappia stellulata AepX substrate binding protein determined by microscale thermophoresis. […]

[1] = system: Alliiroseovarius crassostreae (DSM 16950); assay: Final growth yield on sole N or P source, DSM 16950; type: cell-based
Protocol: (§1) All strains used in this work were axenic. Pseudomonas strains were maintained on Luria Bertani (LB) agar (1.5% w/v) medium at 30 °C. Stappia stellulata and the Roseobacter strains were maintained on Marine Broth agar (1.5% w/v) medium at 30 °C. […] For all growth and proteomics experiments cultures were grown in an adapted minimal A medium[44] using Na-Succinate (20 mM) as the sole carbon source and, where applicable, 10 mM NH4Cl was added as the sole N source. 2AEP and KH2PO4 were added to a final concentration of 100 µM or 1.5 mM as specified in the text and figure legends. Pseudomonas strains were pre-cultured in minimal medium A containing 100 µM Pi and 1.5 mM NH4Cl to ensure adequate growth while minimising the potential for carryover of residual nutrients into experimental cultures. Culture experiments were performed using a FLUOStar Omega 96-well plate reader using Sarstedt 96-well plates incubated at 30°C, shaking at 200 rpm. […] For all other growth and proteomics experiments these marine bacteria were grown in Sea Salts media, with Pi buffer replaced by HEPES buffer. The method used for quantifying extracellular Pi is detailed in the Supplementary Materials.
(§2) Table S1 Final growth yields (mean OD540 ± standard deviation) of Stappia stellulata (DSM 5886), Alliiroseovarius crassostreae (DSM 16950), Alliiroseovarius sediminilitoris (DSM 29439), Thalassobius aestuarii (DSM 15283), and Shimia marina (DSM26895) on 2AEP as sole N or P source with corresponding negative and positive controls. All conditions were performed in triplicate.

[2] = system: Alliiroseovarius sediminilitoris (DSM 29439); assay: Final growth yield on sole N or P source, DSM 29439; type: cell-based
Protocol: as §1, §2

Shimia marina (DSM26895) = assay: Final growth yield on sole N or P source, DSM 26895; type: cell-based
Protocol: as §1, §2

[3] = system: Thalassobius aestuarii (DSM 15283); assay: Final growth yield on sole N or P source, DSM 15283; type: cell-based
Protocol: as §1, §2

[4] = system: Stappia stellulata (DSM 5886); assay: Final growth yield on sole N or P source, DSM 5886; type: cell-based
Protocol: as §1, §2

[5] = system: Pseudomonas putida BIRD-1; assay: Growth of P. putida BIRD-1 on 2AEP; type: cell-based
Protocol: All strains used in this work were axenic. Pseudomonas strains were maintained on Luria Bertani (LB) agar (1.5% w/v) medium at 30 °C. […] For all growth and proteomics experiments cultures were grown in an adapted minimal A medium[44] using Na-Succinate (20 mM) as the sole carbon source and, where applicable, 10 mM NH4Cl was added as the sole N source. 2AEP and KH2PO4 were added to a final concentration of 100 µM or 1.5 mM as specified in the text and figure legends. Pseudomonas strains were pre-cultured in minimal medium A containing 100 µM Pi and 1.5 mM NH4Cl to ensure adequate growth while minimising the potential for carryover of residual nutrients into experimental cultures. Culture experiments were performed using a FLUOStar Omega 96-well plate reader using Sarstedt 96-well plates incubated at 30°C, shaking at 200 rpm.

E. coli PhnD = conditions: read-out: Kd (μM) PhnD Ec, cited from earlier work

Compound: NCCP(=O)(O)O [2-Aminoethylphosphonate, 2-aminoethylphosphonate]
- Kd of AepX in words (S. stellulata AepX): nanomolar range
- Kd (S. stellulata AepX): 0.023 ± 0.004 µM
- Final growth yield (mean OD540 ± standard deviation), sole N source [1]: 0.535±0.039 OD540
- Final growth yield (mean OD540 ± standard deviation), sole P source [1]: 1.050±0.018 OD540
- Final growth yield (mean OD540 ± standard deviation), sole N source [2]: 0.239±0.008 OD540
- Final growth yield (mean OD540 ± standard deviation), sole P source [2]: 0.748±0.019 OD540
- Final growth yield (mean OD540 ± standard deviation), sole N source (Shimia marina (DSM26895)): 0.347±0.004 OD540
- Final growth yield (mean OD540 ± standard deviation), sole P source (Shimia marina (DSM26895)): 0.827±0.013 OD540
- Final growth yield (mean OD540 ± standard deviation), sole N source [3]: 0.487±0.020 OD540
- Final growth yield (mean OD540 ± standard deviation), sole P source [3]: 0.869±0.094 OD540
- Final growth yield (mean OD540 ± standard deviation), sole N source [4]: 0.816±0.080 OD540
- Final growth yield (mean OD540 ± standard deviation), sole P source [4]: 0.980±0.005 OD540
- Growth on 2AEP as sole P, sole N or sole N and sole P source [5]: capable of growth
- Kd (E. coli PhnD): 0.05 to 0.1 µM

Compound: NCP(=O)(O)O [Aminomethylphosphonate]
- Kd (S. stellulata AepX; microscale thermophoresis, recombinant S. stellulata AepX, 22 °C): 4490 ± 808 µM
- Kd (E. coli PhnD; E. coli PhnD, previous studies): 16.6 µM

Compound: ammonium [NH4]
- Final growth yield (mean OD540 ± standard deviation), sole N source [1]: 0.776±0.044 OD540
- Final growth yield (mean OD540 ± standard deviation), sole N source [2]: 0.257±0.004 OD540
- Final growth yield (mean OD540 ± standard deviation), sole N source (Shimia marina (DSM26895)): 0.397±0.035 OD540
- Final growth yield (mean OD540 ± standard deviation), sole N source [4]: 0.680±0.016 OD540

Compound: orthophosphate [Pi]
- Final growth yield (mean OD540 ± standard deviation), sole P source [1]: 0.90±0.018 OD540
- Final growth yield (mean OD540 ± standard deviation), sole P source [2]: 1.100±0.037 OD540
- Final growth yield (mean OD540 ± standard deviation), sole P source (Shimia marina (DSM26895)): 1.045±0.020 OD540
- Final growth yield (mean OD540 ± standard deviation), sole P source [3]: 1.003±0.030 OD540
- Final growth yield (mean OD540 ± standard deviation), sole P source [4]: 1.01±0.07 OD540
